Active and inactive are the calls of the source. No cut-off for these calls is given here.
Columns and labels:
[1] = target: T1, Signal transducer and activator of transcription 3 (Homo sapiens, UniProt P40763); test: Inhibition of STAT3 phosphorylation at Tyr705 residue in human MDA-MB-231 cells at 0.1 uM by Western blot analysis; format: cell-based; conditions: time 8-48 hrs
MDA-MB-231 [2] = test: Inhibition of colony formation in human MDA-MB-231 cells measured after 14 days by crystal violet staining based analysis; format: functional, cell-based; conditions: dose 0.1-0.5 µM, time 14.0 day
MDA-MB-231 [3] = test: Antitumor activity against human MDA-MB-231 cells xenografted in female nude BALB/c mouse model assessed as reduction in tumor volume at 10 mg/kg, ip administered every other day for 30 days (reference value: 1522.98 millimeter); format: functional; conditions: time 30 day
[4] = target: T1, Signal transducer and activator of transcription 3; test: Inhibition of STAT3 phosphorylation in human MDA-MB-231 cells assessed as downregulation of KRT1 expression level; format: cell-based
[5] = Toxicity in female BALB/c nude mouse assessed as effect on liver at 10 to 20 mg/kg, iv measured after 30 days by H and E staining based analysis; format: organism-based; conditions: in vivo, 720 h, dose 10-20 mg/kg, time 30 day
MDA-MB-231 [6] = test: Downregulation of STAT3 phosphorylation level in human MDA-MB-231 cells preincubated for 48 hrs followed by IL-6 addition and measured after 2 hrs by Western blot analysis; format: functional, cell-based; conditions: dose 0.05-0.5 µM, time 50.0 hrs
[7] = target: T1, Signal transducer and activator of transcription 3; test: Inhibition of STAT3 in human MDA-MB-231 cells assessed as downregulation of SPRY1 level; format: cell-based
BT-549 [8] = test: Downregulation of CD44 expression in human BT-549 cells by Western blot analysis; format: functional, cell-based
[9] = target: T1, Signal transducer and activator of transcription 3; test: Inhibition of STAT3 phosphorylation in human MDA-MB-231 cells assessed as downregulation of TAGLN expression level; format: cell-based
[10] = target: T1, Signal transducer and activator of transcription 3; test: Competitive binding affinity to STAT3 SH2 domain (unknown origin) expressed in HEK293T cells assessed as decrease in fluorescence intensity by dual luciferase analysis; format: cell-based; conditions: dose 0.05-0.5 µM
BT-549 [11] = test: Effect on Akt phosphorylation level in human BT-549 cells at 0.05 to 0.5 uM measured after 48 hrs by Western blot analysis; format: functional, cell-based; conditions: dose 0.05-0.5 µM
BT-549 [12] = test: Downregulation of STAT3 phosphorylation level in human BT-549 cells preincubated for 48 hrs followed by IL-6 addition and measured after 2 hrs by Western blot analysis; format: functional, cell-based; conditions: dose 0.05-0.5 µM, time 50.0 hrs
MDA-MB-231 [13] = test: Downregulation of Bcl-xl level in human MDA-MB-231 cells measured after 48 hrs by Western blot analysis; format: functional, cell-based; conditions: dose 0.05-0.5 µM
[14] = Toxicity in female BALB/c nude mouse assessed as effect on spleen at 10 to 20 mg/kg, iv measured after 30 days by H and E staining based analysis; format: organism-based; conditions: in vivo, 720 h, dose 10-20 mg/kg, time 30 day
MDA-MB-231 [15] = test: Inhibition of cell invasion in human MDA-MB-231 cells assessed as decrease in number of invaded cells incubated for 24 hrs by crystal violet staining based inverted microscopic analysis; format: functional; conditions: dose 0.05-0.5 µM
[16] = target: T2, Tyrosine-protein kinase JAK3 (Homo sapiens) (UniProt P52333); test: Inhibition of JAK3 (unknown origin) at upto 10 uM
T2 sequence (whole entry): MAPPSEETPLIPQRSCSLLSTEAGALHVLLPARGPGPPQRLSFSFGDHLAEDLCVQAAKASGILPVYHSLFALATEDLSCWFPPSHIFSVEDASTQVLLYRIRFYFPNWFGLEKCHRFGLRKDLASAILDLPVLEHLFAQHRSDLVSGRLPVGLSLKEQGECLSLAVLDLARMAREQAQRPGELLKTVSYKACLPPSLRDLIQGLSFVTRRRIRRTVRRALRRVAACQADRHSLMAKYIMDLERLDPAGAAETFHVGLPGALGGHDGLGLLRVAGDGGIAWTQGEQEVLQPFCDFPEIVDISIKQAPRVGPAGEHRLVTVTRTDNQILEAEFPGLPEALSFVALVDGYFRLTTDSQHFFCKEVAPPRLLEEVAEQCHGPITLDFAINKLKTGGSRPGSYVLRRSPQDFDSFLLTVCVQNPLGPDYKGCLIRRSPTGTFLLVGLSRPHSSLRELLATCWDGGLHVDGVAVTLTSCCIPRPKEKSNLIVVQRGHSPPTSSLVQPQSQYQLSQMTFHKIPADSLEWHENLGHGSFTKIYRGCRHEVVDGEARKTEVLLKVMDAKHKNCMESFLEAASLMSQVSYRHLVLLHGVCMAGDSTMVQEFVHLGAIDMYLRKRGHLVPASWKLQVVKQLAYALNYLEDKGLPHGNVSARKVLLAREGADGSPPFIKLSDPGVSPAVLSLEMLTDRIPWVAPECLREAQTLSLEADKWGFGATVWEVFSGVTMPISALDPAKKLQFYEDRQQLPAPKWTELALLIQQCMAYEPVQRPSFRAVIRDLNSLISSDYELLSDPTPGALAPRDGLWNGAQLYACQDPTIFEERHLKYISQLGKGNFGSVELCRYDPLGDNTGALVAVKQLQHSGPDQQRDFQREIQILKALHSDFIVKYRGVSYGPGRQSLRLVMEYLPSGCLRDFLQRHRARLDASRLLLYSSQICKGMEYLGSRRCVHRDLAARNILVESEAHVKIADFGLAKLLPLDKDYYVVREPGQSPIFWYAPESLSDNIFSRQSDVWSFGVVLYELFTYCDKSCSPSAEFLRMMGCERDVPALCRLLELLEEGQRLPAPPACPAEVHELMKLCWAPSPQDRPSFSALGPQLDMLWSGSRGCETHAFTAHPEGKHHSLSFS

MDA-MB-231 [17] = test: Antiproliferative activity against human MDA-MB-231 cells assessed as inhibition of cell growth incubated for 72 hrs by SRB method; format: functional, cell-based; conditions: MDA-MB-231, 72 h
BT-549 [18] = test: Inhibition of cell migration in human BT-549 cells assessed as reduction in wound closure proportion at 0.05 to 0.5 uM incubated for 24 hrs by inverted microscopic analysis; format: functional, cell-based; conditions: dose 0.05-0.5 µM
BT-549 [19] = test: Inhibition colony formation in human BT-549 cells harbouring STAT3 siRNA at 0.1 uM after 14 days by crystal violet staining based analysis; format: functional, cell-based; conditions: time 14.0 day
[20] = Half life in female BALB/c nude mouse administered as iv dose; format: ADME, organism-based; conditions: in vivo
BT-549 [21] = test: Effect on JAK1 phosphorylation level in human BT-549 cells at 0.05 to 0.5 uM measured after 48 hrs by Western blot analysis; format: functional, cell-based; conditions: dose 0.05-0.5 µM
MDA-MB-231 [22] = test: Inhibition of colony formation in human MDA-MB-231 cells at low concentration measured after 14 days by crystal violet staining based analysis; format: functional, cell-based; conditions: time 14.0 day
[23] = MRT in female BALB/c nude mouse administered as iv dose; format: ADME, organism-based; conditions: in vivo
[24] = target: T1, Signal transducer and activator of transcription 3; test: Inhibition of STAT3 phosphorylation in human MDA-MB-231 cells assessed as upregulation of UBE2S expression level; format: cell-based
MDA-MB-231 [25] = test: Induction of apoptosis in human MDA-MB-231 cells assessed as late apoptotic at 0.05 uM incubated for 48 hrs by Annexin V and PI staining based flow cytometry analysis (reference value: 2.71%); format: functional
MDA-MB-231 [26] = test: Antitumor activity against human MDA-MB-231 cells xenografted in female nude BALB/c mouse model assessed as tumor growth inhibition at 20 mg/kg, ip administered every other day for 30 days relative to control; format: functional; conditions: MDA-MB-231, 720 h, time 30 day, read-out: TGI

T1 sequence (P40763 whole entry): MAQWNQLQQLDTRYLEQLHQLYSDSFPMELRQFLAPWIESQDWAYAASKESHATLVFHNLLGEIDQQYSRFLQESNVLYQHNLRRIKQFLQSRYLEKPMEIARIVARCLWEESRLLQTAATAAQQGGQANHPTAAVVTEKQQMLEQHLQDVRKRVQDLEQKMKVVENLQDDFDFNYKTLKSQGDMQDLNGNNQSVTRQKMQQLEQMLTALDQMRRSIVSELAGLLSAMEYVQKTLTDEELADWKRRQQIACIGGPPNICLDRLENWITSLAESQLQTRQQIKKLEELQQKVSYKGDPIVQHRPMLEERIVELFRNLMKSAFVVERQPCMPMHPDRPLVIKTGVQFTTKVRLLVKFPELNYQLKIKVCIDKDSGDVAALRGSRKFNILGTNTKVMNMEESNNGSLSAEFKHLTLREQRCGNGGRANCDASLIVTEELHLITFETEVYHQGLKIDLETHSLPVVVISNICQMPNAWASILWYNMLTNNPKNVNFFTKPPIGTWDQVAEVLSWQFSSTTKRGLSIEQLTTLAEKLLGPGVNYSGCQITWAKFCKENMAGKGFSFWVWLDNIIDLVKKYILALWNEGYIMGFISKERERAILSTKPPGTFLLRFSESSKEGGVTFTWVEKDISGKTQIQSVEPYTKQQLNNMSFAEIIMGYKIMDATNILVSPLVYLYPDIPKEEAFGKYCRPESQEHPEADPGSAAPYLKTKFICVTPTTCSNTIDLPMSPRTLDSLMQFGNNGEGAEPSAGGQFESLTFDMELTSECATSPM

SMILES: COc1cccc(C(=O)Nc2sc3c(c2C#N)CCN(C(=O)Nc2ccccc2OC)C3)c1
- inhibition [1]: Time-dependent-effect
- inhibition (MDA-MB-231 [2]): Dose-dependent-effect
- tumor volume (MDA-MB-231 [3]): 762 mm³
- inhibition [4]: Active
- Activity [5]: Non-toxic
- Activity (MDA-MB-231 [6]): Dose-dependent-effect
- inhibition [7]: Active
- Activity (BT-549 [8]): Active
- inhibition [9]: Active
- Activity [10]: Dose-dependent-effect
- Activity (BT-549 [11]): inactive
- Activity (BT-549 [12]): Dose-dependent-effect
- Activity (MDA-MB-231 [13]): Dose-dependent-effect
- Activity [14]: Non-toxic
- inhibition (MDA-MB-231 [15]): Dose-dependent-effect
- inhibition [16]: Active; Compound Showed Little Inhibitory Effect
- IC50 (MDA-MB-231 [17]): 30 nM
- inhibition (BT-549 [18]): Active
- inhibition (BT-549 [19]): inactive
- half-life [20]: 23 h
- Activity (BT-549 [21]): inactive
- inhibition (MDA-MB-231 [22]): Active; Compound Showed Robust Inhibition Compared To Positive Control
- MRT [23]: 10 h
- inhibition [24]: Active
- Activity (MDA-MB-231 [25]): 12.78%
- inhibition in vivo at 20 mg/kg (MDA-MB-231 [26]): 58%
